These results are taken from ChEMBL document CHEMBL5634186, “Structure-Activity Relationship Study of Biselyngbyolide B Reveals Mitochondrial Fission-Induced Cytotoxicity in Cancer” (ACS Med Chem Lett, 2024).

One data set relates to HCT-116. Put plainly: Anticancer activity against human HCT-116 cells assessed as inhibition of cell viability incubated for 16 hrs by MTT assay. In kind it is functional, cell-based. Conditions: HCT-116, 16 h. A general note: Tetrazolium dyes change colour on reduction, which living cells bring about.
Data set [1] can be described thus: Cytotoxicity against HEK293 cells assessed as reduction in cell viability incubated for 16 hrs by MTT assay. It counts as toxicity, cell-based. The conditions noted are these: human.

Molecules are shown by their SMILES.

For the molecule `C/C=C/C/C(C)=C\[C@H]1C/C=C/C=C/C[C@H](C)/C=C/[C@@H](OC)C/C=C/[C@@H](O)CC(=O)O1`, the IC50 in the data set on HCT-116 came out at 7.1 µM. Moreover, in data set [1], the IC50 at 16 h worked out at 11.8 µM.
Turning to `C/C=C/C/C(C)=C\[C@H]1C/C=C/C=C/C[C@H](C)/C=C(\C)[C@@H](OC)C/C=C/[C@@H](O)CC(=O)O1`, the IC50 in the data set on HCT-116 stood at 3.2 µM. Also, in data set [1], the IC50 at 16 h worked out at 20.6 µM.
The like results for `CCCCC[C@H]1C/C=C/C=C/C[C@H](C)/C=C(\C)[C@@H](OC)C/C=C/[C@@H](O)CC(=O)O1` were, in that order, 8.1 µM and 14.3 µM.
For the molecule `C/C=C/C/C(C)=C\[C@H]1C/C=C/C=C/C[C@H](C)/C=C(\C)[C@@H](OC)C[C@@H](O)C[C@@H](O)CC(=O)O1`, the IC50 in the data set on HCT-116 stood at 0.1 µM. For the same molecule, the IC50 at 16 h in data set [1] came out at 20.8 µM.
Regarding `C/C=C/C/C(C)=C\[C@H]1C/C=C/C=C/CC/C=C(\C)[C@@H](OC)C/C=C/[C@@H](O)CC(=O)O1`, the IC50 with HCT-116 was found to be 6.8 µM. Moreover, the IC50 at 16 h in data set [1] was 12.5 µM.
With `CCCC/C(C)=C\[C@H]1C/C=C/C=C/C[C@H](C)/C=C(\C)[C@@H](OC)C/C=C/[C@@H](O)CC(=O)O1`, the IC50 in the data set with HCT-116 stood at 8.1 µM. Further, the IC50 at 16 h in data set [1] was 11.3 µM.

As usually defined, the IC50 is the concentration at which inhibition is half-maximal.
